Measured values from US20180282323A1, “Mesoionic imidazole derivatives as insecticides” (BAYER CROPSCIENCE AKTIENGESELLSCHAFT, priority 2015, published 2018).
Where two headings read alike, the source gives them in different places.

Tests used:
Diabrotica balteata = Diabrotica balteata spray test; assay type: in vivo; settings: application rate 160 μg/well, wheat grains with beetle larvae, after 7 days
Method: Diabrotica balteata—Spray Test Solvent: 78 parts by weight of acetone • • 1.5 parts by weight of dimethylformamide Emulsifier: alkylaryl polyglycol ether
(§1) To produce a suitable active ingredient formulation, 1 part by weight of active ingredient is dissolved with the stated parts by weight of solvent and made up with water containing an emulsifier concentration of 1000 ppm until the desired concentration is attained. To produce further test concentrations, the formulation is diluted with emulsifier-containing water.
Pre-swollen wheat grains (Triticum aestivum) are incubated in a multiwell plate filled with agar and a little water for one day (5 seed grains per cavity). The germinated wheat grains are sprayed with an active ingredient formulation of the desired concentration. Subsequently, each cavity is infected with 10-20 beetle larvae of Diabrotica balteata.
After 7 days, the efficacy in % is determined. 100% means that all wheat plants have grown as in the untreated, uninfected control; 0% means that no wheat plant has grown.

[1] = log P by HPLC on reversed-phase column (EEC directive 79/831 Annex V.A8); assay type: physicochemical; settings: for log p a): HPLC on reversed-phase column; for log p: HPLC on reversed-phase column (footnote a)
Method in brief: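 Reversed-phase (C18) HPLC at 43° C, following EEC directive 79/831 Annex V.A8.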

Myzus persicae [2] = experiment: Myzus persicae spray test (Chinese cabbage leaf discs); assay type: in vivo; settings: application rate 500 g/ha, after 6 days
Method: Myzus persicae—Spray Test Solvent: 78 parts by weight of acetone • • 1.5 parts by weight of dimethylformamide Emulsifier: alkylaryl polyglycol ether
as §1
Discs of Chinese cabbage leaves (Brassica pekinensis) infested by all stages of the green peach aphid (Myzus persicae) are sprayed with an active ingredient formulation of the desired concentration.
After 6 days, the efficacy in % is determined. 100% means that all the aphids have been killed; 0% means that no aphids have been killed.

Myzus persicae [3] = experiment: Myzus persicae oral test; assay type: in vivo; settings: application rate 20 ppm, oral uptake through parafilm, after 5 days
Method in brief: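 Oral feeding format: mixed-stage Myzus persicae imbibe acetone/water compound formulation in sugared IPL41 medium through parafilm. Efficacy assessed as percent aphids killed at day 5.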

Row | log p a) [1] | Compound | efficacy (Diabrotica balteata) | efficacy (Myzus persicae [2]) | efficacy (Myzus persicae [3]) | log p [1] | pest or weed control at 20 ppm (Myzus persicae [3]; Myzus persicae, 120 h, read-out: efficacy) | chromatographic logP [1] | chromatographic logP ([1]; pH 2.7)
1 | – | O=C(Cn1cc(Cl)cn1)c1c([O-])n(Cc2ccc(Cl)nc2)c2cccc[n+]12 [Example I-1-004] | 100% | 90% | 100% | 1.96 | – | – | –
2 | – | CCSCC(=O)c1c([O-])n(Cc2cnc(Cl)s2)c2cccc[n+]12 [Example I-1-028, 1-[(2-Chloro-1,3-thiazol-5-yl)methyl]-3-[(ethylsulphanyl)acetyl]-1H-imidazo[1,2-a]pyridin-4-ium-2-olate] | 100% | 90% | – | – | 100% | 1.99 | 1.99
3 | – | CC(=O)c1c([O-])n(Cc2ccc(Cl)nc2)c2cccc[n+]12 [Example I-1-036] | 100% | 90% | 100% | 1.2 | – | – | –
4 | – | O=C(COCc1ccccc1)c1c([O-])n(Cc2cnc(Cl)s2)c2cccc[n+]12 [Example I-1-041] | 80% | – | 100% | 2.35 | – | – | –
5 | – | O=C(Cn1cccn1)c1c([O-])n(Cc2ccc(Cl)nc2)c2ccc(F)c[n+]12 [Example I-1-106] | – | 90% | 90% | 1.53 | – | – | –
6 | – | COC(=O)c1c([O-])n(Cc2cncnc2)c2cccc[n+]12 [Example I-1-107] | – | 90% | 100% | 0.42 | – | – | –
7 | – | CCOCC(=O)c1c([O-])n(Cc2cnc(Cl)s2)c2ccc(F)c[n+]12 [Example I-1-112] | – | 90% | 100% | 1.58 | – | – | –
8 | – | COC(=O)c1c([O-])n(Cc2cnc(Cl)s2)c2cccc(C)[n+]12 [Example I-1-122] | – | 90% | 100% | 1.32 | – | – | –
9 | – | CNC(=O)c1c([O-])n(Cc2cnc(Cl)s2)c2cccc[n+]12 [Example I-1-128] | 100% | – | – | 1.31 | – | – | –
10 | – | CCCNC(=O)c1c([O-])n(Cc2cnc(Cl)s2)c2cccc[n+]12 [Example I-1-129] | 100% | – | 100% | 1.98 | – | – | –
11 | – | O=C(NC1CCC1)c1c([O-])n(Cc2cnc(Cl)s2)c2cccc[n+]12 [Example I-1-135] | 80% | – | 90% | 2.11 | – | – | –
12 | – | O=C(NCc1ccccc1)c1c([O-])n(Cc2cnc(Cl)s2)c2cccc[n+]12 [Example I-1-148] | 100% | – | 100% | 2.41 | – | – | –
13 | – | COCC(=O)c1c([O-])n(C(C)c2ccc(Cl)nc2)c2cccc[n+]12 (stereo not shown) [Example I-1-178] | – | 90% | 100% | 1.35 | – | – | –
14 | 3.46 | Cc1ccc[n+]2c(C(=O)NC(C)c3ccc(Cl)cc3)c([O-])n(Cc3cnc(Cl)s3)c12 (stereo not shown) [Example I-1-210] | – | 100% | 100% | – | – | – | –
15 | 4.06 | Cc1ccc[n+]2c(C(=O)Nc3cccc(C(F)(F)F)c3)c([O-])n(Cc3cnc(Cl)s3)c12 [Example I-1-216] | 100% | – | 100% | – | – | – | –
16 | 3.87 | O=C(Nc1cccc(OC(F)(F)F)c1)c1c([O-])n(Cc2cnc(Cl)s2)c2cccc[n+]12 [Example I-1-230] | 100% | – | – | – | – | – | –
17 | 3.13 | O=C(Nc1ccc(F)cc1F)c1c([O-])n(Cc2cnc(Cl)s2)c2cccc[n+]12 [Example I-1-232] | 100% | – | 90% | – | – | – | –
18 | 3.76 | O=C(Nc1cccc(C(F)(F)F)c1)c1c([O-])n(Cc2cnc(Cl)s2)c2cccc[n+]12 [Example I-1-233] | 80% | – | – | – | – | – | –

Row | log p a) [1] | Compound | efficacy (Diabrotica balteata) | efficacy (Myzus persicae [2]) | efficacy (Myzus persicae [3]) | log p [1] | pest or weed control at 20 ppm (Myzus persicae [3]; Myzus persicae, 120 h, read-out: efficacy) | chromatographic logP [1] | chromatographic logP ([1]; pH 2.7)
19 | 3.21 | Cc1cccc(NC(=O)c2c([O-])n(Cc3cnc(Cl)s3)c3cccc[n+]23)c1 [Example I-1-235] | 100% | – | 90% | – | – | – | –
20 | 3.72 | CC(c1ccc(Cl)nc1)n1c([O-])c(C(=O)Nc2cccc(C(F)(F)F)c2)[n+]2ccccc12 (stereo not shown) [Example I-1-238] | 80% | – | – | – | – | – | –
21 | 1.78 | Cc1ccc[n+]2c(C(=O)Nc3ncccc3F)c([O-])n(Cc3cnc(Cl)s3)c12 [Example I-1-274] | – | 90% | 100% | – | – | – | –
22 | 1.81 | CCCNC(=O)c1c([O-])n(Cc2cnc(Cl)cn2)c2cccc[n+]12 [Example I-1-279] | – | 90% | 100% | – | – | – | –
23 | 2.76 | Cc1ccc[n+]2c(C(=O)Nc3c(F)cccc3F)c([O-])n(C(C)c3cnc(Cl)s3)c12 (stereo not shown) [Example I-1-288] | 100% | – | 100% | – | – | – | –
24 | 2.2 | Cc1ccc[n+]2c(C(=O)NC3CC3)c([O-])n(C(C)c3cnc(Cl)s3)c12 (stereo not shown) [Example I-1-290] | 100% | – | – | – | – | – | –
25 | 3.07 | Cc1ccc[n+]2c(C(=O)Nc3c(F)cccc3F)c([O-])n(Cc3cnc(Cl)s3)c12 [Example I-1-291] | 80% | – | – | – | – | – | –
26 | 2.76 | CCC(CC)OCC(=O)c1c([O-])n(Cc2cnc(Cl)s2)c2c(C)ccc[n+]12 [Example I-1-293] | – | 100% | 100% | – | – | – | –
27 | 2.12 | Cc1ccc[n+]2c(C(=O)COC(C)(C)C)c([O-])n(Cc3cnc(Cl)s3)c12 [Example I-1-296] | – | 90% | 100% | – | – | – | –
28 | 2.34 | Cc1ccc[n+]2c(C(=O)COCC(F)(F)F)c([O-])n(Cc3cnc(Cl)s3)c12 [Example I-1-297] | – | 90% | 100% | – | – | – | –
29 | 1.63 | O=C(Nc1ncccc1Cl)c1c([O-])n(Cc2cnc(Cl)s2)c2cccc[n+]12 [Example I-1-301] | – | 100% | 100% | – | – | – | –
30 | 2.8 | Cc1cccc(Cl)c1NC(=O)c1c([O-])n(Cc2cnc(Cl)s2)c2cccc[n+]12 [Example I-1-304] | – | 100% | 100% | – | – | – | –
31 | 2.14 | O=C(Nc1c(Cl)ccnc1Cl)c1c([O-])n(Cc2cnc(Cl)s2)c2cccc[n+]12 [Example I-1-305] | – | 90% | 100% | – | – | – | –
32 | 2.4 | O=C(Nc1cccnc1Cl)c1c([O-])n(Cc2cnc(Cl)s2)c2cccc[n+]12 [Example I-1-308] | – | 90% | 100% | – | – | – | –
33 | 2.03 | Cc1ccnc(Cl)c1NC(=O)c1c([O-])n(Cc2cnc(Cl)s2)c2cccc[n+]12 [Example I-1-309] | – | 100% | 100% | – | – | – | –
34 | 1.75 | N#Cc1cccnc1NC(=O)c1c([O-])n(Cc2cnc(Cl)s2)c2cccc[n+]12 [Example I-1-310] | – | 90% | 100% | – | – | – | –
35 | 3.22 | O=C(Nc1ccccc1C(F)(F)F)c1c([O-])n(Cc2cnc(Cl)s2)c2cccc[n+]12 [Example I-1-311] | – | 100% | 100% | – | – | – | –
36 | 2.43 | N#Cc1cccc(Cl)c1NC(=O)c1c([O-])n(Cc2cnc(Cl)s2)c2cccc[n+]12 [Example I-1-319] | – | 90% | 100% | – | – | – | –

Row | Compound | log p a) [1] | efficacy (Diabrotica balteata) | efficacy (Myzus persicae [2]) | efficacy (Myzus persicae [3]) | log p [1] | pest or weed control at 20 ppm (Myzus persicae [3]; Myzus persicae, 120 h, read-out: efficacy) | chromatographic logP [1] | chromatographic logP ([1]; pH 2.7)
37 | CCCNC(=O)c1c([O-])n(C(C)c2ccc(Cl)nc2)c2c(C)ccc[n+]12 (racemic) [Example I-1-258] | 2.23 | 80% | – | – | – | – | – | –
38 | Cc1ccc[n+]2c(C(=O)NC3CC3)c([O-])n(Cc3cnc(Cl)s3)c12 [Example I-1-203] | 1.93 | 100% | – | 100% | – | – | – | –
39 | CNC(=O)c1c([O-])n(C(C)c2ccc(Cl)nc2)c2cccc[n+]12 (stereo not shown) [Example I-1-246] | 1.41 | 100% | 90% | 90% | – | – | – | –
40 | CCCNC(=O)c1c([O-])n(Cc2cnc(Cl)s2)c2c(C)ccc[n+]12 [Example I-1-267] | 2.26 | 100% | 90% | – | – | – | – | –
41 | COC(=O)c1c([O-])n(C(C)c2cnc(Cl)s2)c2c(C)ccc[n+]12 (stereo not shown) [Example I-1-287] | 1.68 | 80% | – | 100% | – | – | – | –
42 | O=C(Nc1c(F)cccc1F)c1c([O-])n(Cc2ccc(Cl)nc2)c2cccc[n+]12 [Example I-1-313] | 2.27 | – | 90% | 100% | – | – | – | –
43 | O=C(Nc1ncccc1Cl)c1c([O-])n(Cc2ccc(Cl)nc2)c2cccc[n+]12 [Example I-1-315] | 1.46 | – | 100% | 100% | – | – | – | –
44 | Cn1nccc1NC(=O)c1c([O-])n(Cc2ccc(Cl)nc2)c2cccc[n+]12 [Example I-1-325] | 1.49 | – | 90% | 100% | – | – | – | –
45 | Cc1ccccc1NC(=O)c1c([O-])n(Cc2ccc(Cl)nc2)c2cccc[n+]12 [Example I-1-328] | 2.73 | – | 90% | 100% | – | – | – | –
